Source: patent US10875861B1, “Therapeutic compounds” (Rutgers, The State University of New Jersey, priority 2017, dated 2020)

System: BMI-1 protein
Assay: Inhibition of BMI-1 protein levels in U87 cells (Western blotting)
Type: cell-based
Settings: U87 cells, 72 hours, different concentrations
Procedure: U87 cells were treated with DMSO or different concentrations of compound B1 for 72 hours. Cells were lysed in Cell Lysis Buffer (Cell Signaling, #9803) supplemented with Protease Inhibitor Cocktail (Sigma, #P8340), sonicated briefly while on ice and spun down for 30 minutes at 4° C., after which the supernatant was collected. For each sample, 2 uL of lysate was mixed well into 198 uL de-ionized water. Next, 10 uL of this diluted sample was added to a well in a 96 well plate in quadruplets and mixed with Protein Assay Dye Reagent Concentrate (Bio-Rad, #500-0006) (which was diluted 1:5 with water). BSA standards of 25 ng, 50 ng, 100 ng, 200 ng and 250 ng were also used to the plate and mixed with the reagent. The plate was read in a plate reader at 600 nm and samples were calibrated to the standards to determine the concentration of protein. Using the NuPAGE system (Invitrogen), 25 ug of protein was mixed with NuPAGE LDS 4× Sample Buffer (#NP0007), NuPAGE 10× Reducing Agent (#NP0004) and water, mixed well and heated at 96° C. for 15 minutes to denature the protein. […] Protein signals were detected using ECL Western Blotting Substrate (Pierce, #32106) and filmed.
U87 cells were treated with DMSO or different concentrations of the inhibitors for 72 hours. […] The plate was read in a plate reader at 600 nm and samples were calibrated to the standards to determine the concentration of protein. […]

## COc1ccc(Nc2nc(-c3nc4ncccn4c3C)cs2)cc1 [Example B1, N-(4-methoxyphenyl)-4-(3-methylimidazo[1,2-a]pyrimidin-2-yl)thiazol-2-amine]
  BMI-1 protein levels in U87 cells (Test C): inhibition of BMI-1 protein levels
